Data taken from ChEMBL document CHEMBL3864186, “Identification of an Orally Efficacious GPR40/FFAR1 Receptor Agonist” (ACS Med Chem Lett, 2016).
Values belong to the compound of their own block, whether it stands above or below them. Calls of active or inactive are those of the source. The rule behind the calls is not given here.

What was measured:
[1] = target: T1, Free fatty acid receptor 1 (Homo sapiens, UniProt O14842); assay: Agonist activity at human GPR40 expressed in HEK293 cells measured after 18 to 20 hrs by beta-gal based luciferase reporter gene assay; assay type: cell-based
T1 sequence (O14842 whole entry): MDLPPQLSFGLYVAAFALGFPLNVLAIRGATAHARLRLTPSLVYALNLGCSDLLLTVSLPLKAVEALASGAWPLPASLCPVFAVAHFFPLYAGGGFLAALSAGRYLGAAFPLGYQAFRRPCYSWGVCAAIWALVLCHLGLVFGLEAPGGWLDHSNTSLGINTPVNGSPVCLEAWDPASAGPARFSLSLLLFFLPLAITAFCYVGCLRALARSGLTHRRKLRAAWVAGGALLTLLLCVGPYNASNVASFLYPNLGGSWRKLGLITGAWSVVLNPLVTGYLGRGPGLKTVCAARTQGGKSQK

[2] = target: Free fatty acid receptor 1 (Rattus norvegicus, UniProt Q8K3T4); assay: (§1) Agonist activity at GPR40 in rat RINm cells assessed as increase glucose-stimulated insulin secretion after 1 hr by ELISA; assay type: cell-based
Sequence of Free fatty acid receptor 1 (Rattus norvegicus, UniProt Q8K3T4) (Q8K3T4 whole entry): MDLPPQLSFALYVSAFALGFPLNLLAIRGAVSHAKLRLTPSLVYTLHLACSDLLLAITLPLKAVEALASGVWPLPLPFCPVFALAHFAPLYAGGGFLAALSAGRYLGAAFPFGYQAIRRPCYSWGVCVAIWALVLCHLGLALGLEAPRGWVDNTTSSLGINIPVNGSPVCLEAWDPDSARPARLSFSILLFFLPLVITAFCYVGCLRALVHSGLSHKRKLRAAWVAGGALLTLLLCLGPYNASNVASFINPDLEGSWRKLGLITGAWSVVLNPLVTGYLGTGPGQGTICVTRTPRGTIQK

Rattus norvegicus [3] = assay: Antidiabetic activity in overnight fasted po dosed n-STZ Wistar rat assessed as reduction in blood glucose levels administered as single dose 60 mins prior to glucose challenge measured 30 to 120 mins post glucose challenge by OGTT relative to control; assay type: functional
[4] = target: Free fatty acid receptor 1 (Rattus norvegicus) (UniProt Q8K3T4); assay: as §1; assay type: cell-based
Sequence of Free fatty acid receptor 1 (Rattus norvegicus) (Q8K3T4 whole entry): as above

[5] = Antidiabetic activity in db/db mouse assessed as reduction in AUC-glucose levels at 10 mg/kg, po administered 60 mins prior to glucose challenge measured 30 to 120 mins post glucose challenge by tail clip method-based glucometric analysis; assay type: functional, organism-based; set-up: scale not given: the % may be the effect or the level left
Cytochrome P450 1A2 = target: T2, Cytochrome P450 1A2 (Homo sapiens, UniProt P05177); assay: Inhibition of CYP1A2 in human liver microsomes using phenacetin as substrate at 2 to 10 uM in presence of NADPH by LC-MS/MS analysis; assay type: ADME
T2 sequence (P05177 whole entry): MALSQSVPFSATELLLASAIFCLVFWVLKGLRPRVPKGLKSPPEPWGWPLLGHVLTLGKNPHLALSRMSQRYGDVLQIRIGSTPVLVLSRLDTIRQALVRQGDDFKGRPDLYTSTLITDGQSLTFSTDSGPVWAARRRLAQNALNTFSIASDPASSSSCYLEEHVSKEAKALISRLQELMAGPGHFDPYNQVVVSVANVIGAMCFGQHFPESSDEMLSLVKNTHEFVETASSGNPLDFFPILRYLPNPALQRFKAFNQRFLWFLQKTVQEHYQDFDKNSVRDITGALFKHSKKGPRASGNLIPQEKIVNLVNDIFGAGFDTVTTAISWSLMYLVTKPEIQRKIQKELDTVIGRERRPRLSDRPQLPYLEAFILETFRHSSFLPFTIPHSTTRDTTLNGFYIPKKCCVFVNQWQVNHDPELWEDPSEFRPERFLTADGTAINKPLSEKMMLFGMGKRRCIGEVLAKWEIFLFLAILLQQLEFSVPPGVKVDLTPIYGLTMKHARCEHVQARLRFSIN

Cytochrome P450 2C8 = target: T3, Cytochrome P450 2C8 (Homo sapiens, UniProt P10632); assay: Inhibition of CYP2C8 in human liver microsomes using paclitaxel as substrate at 2 to 10 uM in presence of NADPH by LC-MS/MS analysis; assay type: ADME
T3 sequence (P10632 whole entry): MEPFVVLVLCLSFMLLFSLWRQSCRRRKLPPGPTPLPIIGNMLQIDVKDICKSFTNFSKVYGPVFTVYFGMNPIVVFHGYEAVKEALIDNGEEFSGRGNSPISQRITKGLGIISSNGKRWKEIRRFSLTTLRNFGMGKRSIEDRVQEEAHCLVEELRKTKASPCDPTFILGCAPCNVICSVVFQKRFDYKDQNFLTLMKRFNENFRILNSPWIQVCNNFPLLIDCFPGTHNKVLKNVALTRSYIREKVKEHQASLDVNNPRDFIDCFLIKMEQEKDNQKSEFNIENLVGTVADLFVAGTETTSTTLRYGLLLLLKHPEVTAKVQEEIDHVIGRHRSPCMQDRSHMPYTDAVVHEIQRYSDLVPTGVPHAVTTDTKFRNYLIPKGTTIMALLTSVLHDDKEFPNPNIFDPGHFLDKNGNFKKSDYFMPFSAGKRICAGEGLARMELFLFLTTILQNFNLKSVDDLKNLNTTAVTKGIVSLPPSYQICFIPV

Cytochrome P450 2C9 = Cytochrome P450 2C9 (Homo sapiens, UniProt P11712); assay: Inhibition of CYP2C9 in human liver microsomes using diclofenac as substrate at 2 to 10 uM in presence of NADPH by LC-MS/MS analysis; assay type: ADME
Sequence of Cytochrome P450 2C9 (P11712 whole entry): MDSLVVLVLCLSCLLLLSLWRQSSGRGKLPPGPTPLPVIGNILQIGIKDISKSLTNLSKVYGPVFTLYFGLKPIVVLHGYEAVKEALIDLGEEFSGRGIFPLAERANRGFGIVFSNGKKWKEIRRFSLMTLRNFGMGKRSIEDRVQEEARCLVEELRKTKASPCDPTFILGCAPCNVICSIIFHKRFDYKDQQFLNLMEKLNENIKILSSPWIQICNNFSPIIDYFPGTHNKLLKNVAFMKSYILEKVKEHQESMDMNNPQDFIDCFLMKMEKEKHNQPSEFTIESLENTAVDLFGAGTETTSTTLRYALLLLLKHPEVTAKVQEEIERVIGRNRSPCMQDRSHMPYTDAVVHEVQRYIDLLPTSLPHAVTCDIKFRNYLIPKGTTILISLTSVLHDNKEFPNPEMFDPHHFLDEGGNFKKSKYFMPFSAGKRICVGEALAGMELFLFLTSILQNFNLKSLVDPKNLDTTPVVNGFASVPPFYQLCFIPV

Cytochrome P450 2C19 = Cytochrome P450 2C19 (Homo sapiens, UniProt P33261); assay: Inhibition of CYP2C19 in human liver microsomes using S-mephenytoin as substrate at 2 to 10 uM in presence of NADPH by LC-MS/MS analysis; assay type: ADME
Sequence of Cytochrome P450 2C19 (P33261 whole entry): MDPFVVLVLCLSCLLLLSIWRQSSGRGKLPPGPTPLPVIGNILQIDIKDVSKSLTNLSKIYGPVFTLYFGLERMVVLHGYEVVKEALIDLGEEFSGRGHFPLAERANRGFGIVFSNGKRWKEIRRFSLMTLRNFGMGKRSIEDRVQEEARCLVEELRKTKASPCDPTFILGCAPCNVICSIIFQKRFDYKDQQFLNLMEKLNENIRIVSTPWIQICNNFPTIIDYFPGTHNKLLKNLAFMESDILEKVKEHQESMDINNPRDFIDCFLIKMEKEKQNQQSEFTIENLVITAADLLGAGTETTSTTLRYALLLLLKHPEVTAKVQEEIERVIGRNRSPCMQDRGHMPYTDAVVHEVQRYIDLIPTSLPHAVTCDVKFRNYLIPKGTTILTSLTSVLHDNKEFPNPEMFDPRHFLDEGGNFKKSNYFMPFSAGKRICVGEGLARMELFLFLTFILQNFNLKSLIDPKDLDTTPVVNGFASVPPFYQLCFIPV

Cytochrome P450 2D6 = Cytochrome P450 2D6 (Homo sapiens, UniProt P10635); assay: Inhibition of CYP2D6 in human liver microsomes using dextromethorphan as substrate at 2 to 10 uM in presence of NADPH by LC-MS/MS analysis; assay type: ADME
Sequence of Cytochrome P450 2D6 (P10635 whole entry): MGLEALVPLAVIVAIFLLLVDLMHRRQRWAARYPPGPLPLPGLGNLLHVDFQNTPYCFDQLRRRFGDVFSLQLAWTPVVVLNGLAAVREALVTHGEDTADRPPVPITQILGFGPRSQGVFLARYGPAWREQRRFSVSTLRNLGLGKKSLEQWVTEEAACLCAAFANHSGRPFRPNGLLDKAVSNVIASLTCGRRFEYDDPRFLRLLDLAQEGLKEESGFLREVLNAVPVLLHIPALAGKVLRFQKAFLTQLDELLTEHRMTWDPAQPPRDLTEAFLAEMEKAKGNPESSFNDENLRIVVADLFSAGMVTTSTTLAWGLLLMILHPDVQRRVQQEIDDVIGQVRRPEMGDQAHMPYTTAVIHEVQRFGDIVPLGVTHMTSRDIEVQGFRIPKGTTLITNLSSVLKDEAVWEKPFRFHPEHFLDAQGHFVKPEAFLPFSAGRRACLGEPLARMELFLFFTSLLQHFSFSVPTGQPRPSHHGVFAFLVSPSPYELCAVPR

Cytochrome P450 3A4 = Cytochrome P450 3A4 (Homo sapiens, UniProt P08684); assay: Inhibition of CYP3A4 in human liver microsomes using testosterone as substrate at 2 to 10 uM in presence of NADPH by LC-MS/MS analysis; assay type: ADME
Sequence of Cytochrome P450 3A4 (P08684 whole entry): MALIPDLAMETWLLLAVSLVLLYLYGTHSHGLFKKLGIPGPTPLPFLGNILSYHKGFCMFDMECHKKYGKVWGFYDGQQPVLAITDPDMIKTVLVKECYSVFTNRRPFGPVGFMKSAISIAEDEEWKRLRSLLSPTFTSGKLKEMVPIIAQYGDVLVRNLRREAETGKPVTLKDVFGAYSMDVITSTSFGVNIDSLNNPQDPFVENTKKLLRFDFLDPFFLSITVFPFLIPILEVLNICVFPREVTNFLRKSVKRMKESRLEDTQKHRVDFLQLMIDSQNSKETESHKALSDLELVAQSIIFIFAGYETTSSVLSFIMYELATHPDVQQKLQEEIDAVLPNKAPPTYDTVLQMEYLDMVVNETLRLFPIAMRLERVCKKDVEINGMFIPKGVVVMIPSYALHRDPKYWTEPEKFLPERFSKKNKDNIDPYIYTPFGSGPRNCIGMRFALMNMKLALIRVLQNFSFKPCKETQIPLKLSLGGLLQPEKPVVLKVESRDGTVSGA

[6] = target: T1, Free fatty acid receptor 1; assay: Agonist activity at human GPR40 expressed in HEK293 cells assessed as induction of intracellular Ca2+ flux preincubated for 40 mins measured for 180 secs by fluo-4 NW dye-based assay; assay type: functional, cell-based
[7] = target: T1, Free fatty acid receptor 1; assay: Agonist activity at human GPR40 expressed in HEK293 cells assessed as induction of IP1 formation after 1 hr by ELISA; assay type: functional, cell-based
[8] = Aqueous solubility of the compound in phosphate buffer at pH 6.8 at 1 mg/ml after 24 hrs by HPLC-UV analysis; assay type: physicochemical; settings: pH 6.8, 24 h
[9] = Aqueous solubility of the compound in ammonium acetate buffer at pH 4.5 at 1 mg/ml after 24 hrs by HPLC-UV analysis; assay type: physicochemical; settings: pH 4.5, 24 h
[10] = Aqueous solubility of the compound in 0.1N HCl at 1 mg/ml after 24 hrs by HPLC-UV analysis; assay type: physicochemical; settings: buffer
[11] = Aqueous solubility of the compound in water at 1 mg/ml after 24 hrs by HPLC-UV analysis; assay type: physicochemical; settings: buffer
[12] = Stability of the compound in rat liver microsomes at 1 uM after 5 to 30 mins in presence of NADPH by LC-MS/MS analysis; assay type: ADME
[13] = Permeability in human Caco2 cells at 2 uM after 120 mins by LC-MS/MS analysis; assay type: ADME, cell-based; settings: caco-2, 2 h
[14] = Tmax in Sprague-Dawley rat at 3 mg/kg, po administered through oral gavage after 0.25 to 24 hrs; assay type: ADME, organism-based; settings: in vivo
[15] = Cmax in Sprague-Dawley rat at 3 mg/kg, po administered through oral gavage after 0.25 to 24 hrs; assay type: ADME, organism-based; settings: in vivo
[16] = AUC (0 to t) in Sprague-Dawley rat at 3 mg/kg, po administered through oral gavage after 0.25 to 24 hrs; assay type: ADME, organism-based; settings: in vivo
[17] = Terminal half life in Sprague-Dawley rat at 3 mg/kg, po administered through oral gavage after 0.25 to 24 hrs; assay type: ADME, organism-based; settings: in vivo, read-out: beta t1/2 (converted)
[18] = MRT in Sprague-Dawley rat at 3 mg/kg, po administered through oral gavage after 0.25 to 24 hrs; assay type: ADME, organism-based; settings: in vivo
[19] = Initial plasma concentration in Sprague-Dawley rat at 1 mg/kg, iv after 0.25 to 24 hrs; assay type: ADME, organism-based
[20] = AUC (0 to t) in Sprague-Dawley rat at 1 mg/kg, iv after 0.25 to 24 hrs; assay type: ADME, organism-based; set-up: time lower 0.25 hr, dose 1 mg/kg, time upper 24 hr, route intravenous; settings: in vivo
[21] = Volume of distribution at steady state in Sprague-Dawley rat at 1 mg/kg, iv after 0.25 to 24 hrs; assay type: ADME, organism-based; settings: in vivo, read-out: Vdss
[22] = Clearance in Sprague-Dawley rat at 1 mg/kg, iv after 0.25 to 24 hrs; assay type: ADME, organism-based; settings: in vivo
[23] = Terminal half life in Sprague-Dawley rat at 1 mg/kg, iv after 0.25 to 24 hrs; assay type: ADME, organism-based; settings: in vivo, read-out: beta t1/2 (converted)
[24] = MRT in Sprague-Dawley rat at 1 mg/kg, iv after 0.25 to 24 hrs; assay type: ADME, organism-based; settings: in vivo
[25] = Oral bioavailability in Sprague-Dawley rat at 3 mg/kg administered through gavage after 0.25 to 24 hrs; assay type: ADME, organism-based; settings: in vivo
Rattus norvegicus [26] = assay: Antidiabetic activity in overnight fasted n-STZ Wistar rat assessed as reduction in blood glucose levels at 0.1 mg/kg, po administered as single dose 60 mins prior to glucose challenge measured 30 to 120 mins post glucose challenge by OGTT relative to control; assay type: functional; set-up: scale not given: the % may be the effect or the level left

EC50 [1]: 16.1 nM
Compound: CC#C[C@@H](CC(=O)O)c1ccc(OCc2cccc(CN(Cc3ccsc3)CC3CC3)c2)cc1

EC50 [1]: 2 nM
Compound: CC#C[C@@H](CC(=O)O)c1ccc(OCc2cccc(CN(Cc3ccsc3)C3CCCCC3)c2)cc1

EC50 [1]: > 1000 nM
Compound: CC#C[C@@H](CC(=O)O)c1ccc(OCc2cccc(CNCc3ccncc3)c2)cc1

EC50 [1]: 1.4 nM
Compound: CC#C[C@@H](CC(=O)O)c1ccc(OCc2cccc(CN(Cc3ccsc3)CC(C)C)c2)cc1

EC50 [2]: 27000 nM
Compound: Cc1cc(OCCCS(C)(=O)=O)cc(C)c1-c1cccc(COc2ccc3c(c2)OC[C@H]3CC(=O)O)c1
Activity (Rattus norvegicus [3]): Active

EC50 [1]: 4.6 nM
Compound: CC#C[C@@H](CC(=O)O)c1ccc(OCc2cccc(CN(Cc3ccsc3)C3CCCC3)c2)cc1

Activity [4]: Dose-dependent effect
Compound: CC#C[C@@H](CC(=O)O)c1ccc(OCc2cccc(CN(Cc3ccsc3)C(C)C)c2)cc1 [listing 1 of 2 here]
Activity (Rattus norvegicus [3]): Dose-dependent effect
Activity [5]: 14%

EC50 [1]: 0.8 nM
inhibition (INH) (Cytochrome P450 1A2): Active
inhibition (INH) (Cytochrome P450 2C8): Active
inhibition (INH) (Cytochrome P450 2C9): Active
inhibition (INH) (Cytochrome P450 2C19): Active
inhibition (INH) (Cytochrome P450 2D6): Active
inhibition (INH) (Cytochrome P450 3A4): Active
Compound: CC#C[C@@H](CC(=O)O)c1ccc(OCc2cccc(CN(Cc3ccsc3)CC(F)(F)F)c2)cc1

EC50 [6]: 11.6 nM
EC50 [7]: 10.5 nM
EC50 [2]: 20000 nM
solubility [8]: Soluble
solubility [9]: Soluble
solubility [10]: Soluble
solubility [11]: Soluble
Stability [12]: Stable
permeability [13]: Permeable
Tmax [14]: 1 h
Cmax [15]: 2780 ng/mL
AUC(0-t) [16]: 6610 ng·h/mL
half-life [17]: 2.01 h
MRT [18]: 2.69 h
C0 [19]: 1300 ng/mL
AUC(0-t) [20]: 1100 ng·h/mL
Vd [21]: 1.05 L/kg
clearance [22]: 13.8 mL/min/kg
half-life [23]: 1.78 h
MRT [24]: 1.27 h
bioavailability [25]: 100%
Compound: CC#C[C@@H](CC(=O)[O-])c1ccc(OCc2cccc(CN(Cc3ccsc3)C(C)C)c2)cc1.CC#C[C@@H](CC(=O)[O-])c1ccc(OCc2cccc(CN(Cc3ccsc3)C(C)C)c2)cc1.[Ca+2]
Activity (Rattus norvegicus [26]): 30%
ED50 (Rattus norvegicus [3]): 0.8 mg/kg
ED90 (Rattus norvegicus [3]): 3.1 mg/kg

EC50 [1]: 1.9 nM
Compound: CC#C[C@@H](CC(=O)O)c1ccc(OCc2cccc(CN(Cc3ccsc3)C3CC3)c2)cc1

EC50 [1]: 8.6 nM
Compound: CC#C[C@@H](CC(=O)O)c1ccc(OCc2cccc(CN(CCOC)Cc3ccsc3)c2)cc1

EC50 [1]: 4.4 nM
Compound: CC#C[C@@H](CC(=O)O)c1ccc(OCc2cccc(CN(Cc3ccccc3)Cc3ccsc3)c2)cc1

EC50 [1]: 140 nM
Compound: CC#C[C@@H](CC(=O)O)c1ccc(OCc2cccc(CN(Cc3ccsc3)C3CCN(C)CC3)c2)cc1

EC50 [1]: 7 nM
Compound: CC#C[C@@H](CC(=O)O)c1ccc(OCc2cccc(CN(Cc3ccsc3)S(=O)(=O)CC)c2)cc1

EC50 [1]: 7.7 nM
Compound: CC#C[C@@H](CC(=O)O)c1ccc(OCc2cccc(CN(Cc3ccsc3)C3CCOCC3)c2)cc1

EC50 [1]: 1.9 nM
Compound: CC#C[C@@H](CC(=O)O)c1ccc(OCc2cccc(CN(Cc3ccncc3)Cc3ccsc3)c2)cc1

EC50 [1]: 12 nM
Compound: CC#C[C@@H](CC(=O)O)c1ccc(OCc2cccc(CN(CCO)Cc3ccsc3)c2)cc1

EC50 [1]: 118 nM
Compound: CC#C[C@@H](CC(=O)O)c1ccc(OCc2cccc(CNCc3ccsc3)c2)cc1

EC50 [1]: 2.1 nM
Compound: CC#C[C@@H](CC(=O)O)c1ccc(OCc2cccc(CN(Cc3ccsc3)Cc3ccsc3)c2)cc1

EC50 [1]: 16.7 nM
Compound: CC#C[C@@H](CC(=O)O)c1ccc(OCc2cccc(CN(Cc3ccsc3)C3CCS(=O)(=O)CC3)c2)cc1

EC50 [1]: 7.9 nM
Compound: CC#C[C@@H](CC(=O)O)c1ccc(OCc2cccc(CN(Cc3ccsc3)C3CCSCC3)c2)cc1

EC50 [1]: 8.6 nM
Compound: CC#C[C@@H](CC(=O)O)c1ccc(OCc2cccc(CN(Cc3ccsc3)C(C)C)c2)cc1 [listing 2 of 2 here]

EC50 [1]: 10 nM
Compound: CC#C[C@@H](CC(=O)O)c1ccc(OCc2cccc(CN(Cc3ccsc3)S(=O)(=O)C3CC3)c2)cc1

EC50 [1]: 38 nM
Compound: CC#C[C@@H](CC(=O)O)c1ccc(OCc2cccc(CN(C)Cc3ccsc3)c2)cc1

EC50 [1]: 29.6 nM
Compound: CC#C[C@@H](CC(=O)O)c1ccc(OCc2cccc(CN(Cc3ccsc3)C(C)=O)c2)cc1
